Laboratory results published in ChEMBL document CHEMBL5104143, “Synthesis and evaluation of hydrazinyl-containing pyrrolo[2,3-d]pyrimidine series as potent, selective and oral JAK1 inhibitors for the treatment of rheumatoid arthritis” (Bioorg Med Chem Lett, 2022).

Experiments:
[1] = target: Tyrosine-protein kinase JAK2 (Homo sapiens, UniProt O60674)
Description: Inhibition of JAK2 (unknown origin)

[2] = target: Tyrosine-protein kinase JAK1 (Homo sapiens, UniProt P23458); assay: Inhibition of JAK1 (unknown origin)
[3] = target: T1, Tyrosine-protein kinase JAK3 (Homo sapiens, UniProt P52333)
T1 sequence (P52333 whole entry): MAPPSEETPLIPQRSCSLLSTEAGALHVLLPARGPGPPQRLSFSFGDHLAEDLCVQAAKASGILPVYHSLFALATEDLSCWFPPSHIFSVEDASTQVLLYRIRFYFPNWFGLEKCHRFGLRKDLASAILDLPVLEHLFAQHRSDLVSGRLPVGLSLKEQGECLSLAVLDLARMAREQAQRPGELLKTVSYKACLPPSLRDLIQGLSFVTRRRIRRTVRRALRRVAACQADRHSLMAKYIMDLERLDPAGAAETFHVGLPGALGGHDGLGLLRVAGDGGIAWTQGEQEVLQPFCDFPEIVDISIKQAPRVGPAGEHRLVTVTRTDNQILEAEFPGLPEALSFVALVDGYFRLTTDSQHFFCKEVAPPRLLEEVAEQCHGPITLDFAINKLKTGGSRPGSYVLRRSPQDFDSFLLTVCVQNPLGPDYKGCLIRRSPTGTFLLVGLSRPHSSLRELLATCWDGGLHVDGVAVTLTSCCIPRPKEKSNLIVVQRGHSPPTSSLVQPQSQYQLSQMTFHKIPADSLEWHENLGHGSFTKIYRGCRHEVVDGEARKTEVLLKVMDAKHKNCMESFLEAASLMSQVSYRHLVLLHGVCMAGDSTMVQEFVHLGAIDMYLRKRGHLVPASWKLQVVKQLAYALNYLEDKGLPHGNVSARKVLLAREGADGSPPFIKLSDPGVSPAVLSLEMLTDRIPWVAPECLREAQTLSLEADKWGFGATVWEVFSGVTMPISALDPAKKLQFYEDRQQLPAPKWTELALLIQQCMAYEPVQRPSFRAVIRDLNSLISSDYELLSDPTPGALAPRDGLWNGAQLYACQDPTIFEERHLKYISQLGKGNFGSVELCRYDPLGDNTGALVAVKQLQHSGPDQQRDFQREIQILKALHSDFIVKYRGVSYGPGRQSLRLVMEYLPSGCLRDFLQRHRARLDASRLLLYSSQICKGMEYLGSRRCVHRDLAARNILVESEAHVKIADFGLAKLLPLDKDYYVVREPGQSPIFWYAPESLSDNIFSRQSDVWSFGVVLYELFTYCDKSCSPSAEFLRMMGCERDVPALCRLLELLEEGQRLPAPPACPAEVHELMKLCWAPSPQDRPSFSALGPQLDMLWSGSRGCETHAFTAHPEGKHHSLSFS
Description: Inhibition of JAK3 (unknown origin)

Tyrosine-protein kinase JAK1, sequence (P23458 whole entry): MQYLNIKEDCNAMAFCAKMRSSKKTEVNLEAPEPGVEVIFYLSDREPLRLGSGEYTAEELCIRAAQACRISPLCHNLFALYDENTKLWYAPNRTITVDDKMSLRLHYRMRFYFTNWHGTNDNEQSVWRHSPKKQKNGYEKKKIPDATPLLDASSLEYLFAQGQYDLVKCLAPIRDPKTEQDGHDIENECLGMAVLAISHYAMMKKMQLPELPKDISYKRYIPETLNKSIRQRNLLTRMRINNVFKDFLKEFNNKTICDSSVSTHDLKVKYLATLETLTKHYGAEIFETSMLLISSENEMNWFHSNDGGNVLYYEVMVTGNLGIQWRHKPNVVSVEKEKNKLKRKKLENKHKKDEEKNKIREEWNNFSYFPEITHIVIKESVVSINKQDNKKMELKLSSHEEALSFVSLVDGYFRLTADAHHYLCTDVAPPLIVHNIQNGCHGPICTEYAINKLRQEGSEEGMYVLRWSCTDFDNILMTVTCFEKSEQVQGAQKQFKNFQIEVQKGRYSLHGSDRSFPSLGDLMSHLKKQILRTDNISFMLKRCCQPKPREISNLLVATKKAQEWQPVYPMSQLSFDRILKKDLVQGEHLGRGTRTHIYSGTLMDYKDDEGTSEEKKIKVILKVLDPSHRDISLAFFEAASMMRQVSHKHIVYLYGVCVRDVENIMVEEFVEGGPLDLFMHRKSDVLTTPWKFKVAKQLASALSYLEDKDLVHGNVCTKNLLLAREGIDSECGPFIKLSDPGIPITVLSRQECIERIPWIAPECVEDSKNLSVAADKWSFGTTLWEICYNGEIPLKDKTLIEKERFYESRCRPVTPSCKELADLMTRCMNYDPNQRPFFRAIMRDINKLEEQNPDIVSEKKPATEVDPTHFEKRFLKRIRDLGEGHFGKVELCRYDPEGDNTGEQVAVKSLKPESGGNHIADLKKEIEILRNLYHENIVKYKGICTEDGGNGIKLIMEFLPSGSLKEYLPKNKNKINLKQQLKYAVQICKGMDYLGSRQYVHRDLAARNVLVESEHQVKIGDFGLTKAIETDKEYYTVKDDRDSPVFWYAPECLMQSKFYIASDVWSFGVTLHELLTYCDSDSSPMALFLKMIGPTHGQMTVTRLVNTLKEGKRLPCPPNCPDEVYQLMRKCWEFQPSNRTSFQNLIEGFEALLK
Tyrosine-protein kinase JAK2, sequence (O60674 whole entry): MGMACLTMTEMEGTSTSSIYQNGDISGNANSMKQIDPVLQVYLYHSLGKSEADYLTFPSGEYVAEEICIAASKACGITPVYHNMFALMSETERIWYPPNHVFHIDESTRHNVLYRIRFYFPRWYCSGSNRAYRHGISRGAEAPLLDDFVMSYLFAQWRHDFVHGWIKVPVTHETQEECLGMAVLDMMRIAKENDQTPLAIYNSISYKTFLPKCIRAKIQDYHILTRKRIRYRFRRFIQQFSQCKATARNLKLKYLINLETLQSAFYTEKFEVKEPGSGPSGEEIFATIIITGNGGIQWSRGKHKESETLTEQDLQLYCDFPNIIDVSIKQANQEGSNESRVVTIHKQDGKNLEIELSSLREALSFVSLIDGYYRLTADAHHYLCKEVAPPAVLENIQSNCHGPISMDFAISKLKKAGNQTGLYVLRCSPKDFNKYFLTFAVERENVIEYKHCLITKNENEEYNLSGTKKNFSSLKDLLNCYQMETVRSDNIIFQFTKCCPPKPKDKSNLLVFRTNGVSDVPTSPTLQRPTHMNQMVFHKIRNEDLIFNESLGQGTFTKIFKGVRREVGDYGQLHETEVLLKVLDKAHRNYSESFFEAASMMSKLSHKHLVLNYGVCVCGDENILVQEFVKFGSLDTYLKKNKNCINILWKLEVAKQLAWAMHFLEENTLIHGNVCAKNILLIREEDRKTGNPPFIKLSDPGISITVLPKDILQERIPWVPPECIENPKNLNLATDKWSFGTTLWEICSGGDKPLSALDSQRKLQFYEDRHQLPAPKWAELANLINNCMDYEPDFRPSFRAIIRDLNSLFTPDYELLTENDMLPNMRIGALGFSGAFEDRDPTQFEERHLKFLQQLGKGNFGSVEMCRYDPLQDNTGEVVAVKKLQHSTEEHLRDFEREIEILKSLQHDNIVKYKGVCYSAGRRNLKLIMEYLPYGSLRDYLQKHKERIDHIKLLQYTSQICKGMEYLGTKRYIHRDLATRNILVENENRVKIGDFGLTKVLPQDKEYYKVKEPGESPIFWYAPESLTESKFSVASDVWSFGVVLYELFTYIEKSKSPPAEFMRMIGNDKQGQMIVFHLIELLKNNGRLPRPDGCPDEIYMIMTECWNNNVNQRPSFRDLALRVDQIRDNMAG

SMILES	IC50 [1]	IC50 [2]	IC50 [3]
CC1CCC(C(=O)NCC#N)CN1N(C)c1ncnc2[nH]ccc12 (configuration not stated)	1430 nM	521 nM	362 nM
CN(c1ncnc2[nH]ccc12)N1CCCC(C(=O)N2CC(O)C2)C1 (configuration not stated)	817 nM	155 nM	518 nM
CN(c1ncnc2[nH]ccc12)N1CCCC(C(=O)NCC#N)C1 (configuration not stated)	11.6 nM	1.6 nM	8 nM
CN(c1ncnc2[nH]ccc12)N1CCC(C(=O)NCC(F)(F)F)C1 (configuration not stated)	36 nM	1.9 nM	29 nM
CN(c1ncnc2[nH]ccc12)N1CC[C@@H](C(=O)NCC(F)(F)F)C1	8.5 nM	0.16 nM	15 nM
CN(c1ncnc2[nH]ccc12)N1CCC[C@@H](C(=O)NCC(F)(F)F)C1	13 nM	0.7 nM	6.2 nM
COCNC(=O)C1CCCN(N(C)c2ncnc3[nH]ccc23)C1 (configuration not stated)	148 nM	21.3 nM	83.2 nM
CN(c1ncnc2[nH]ccc12)N1CCC(C(=O)NCC#N)CC1	272 nM	12 nM	287 nM
CN(c1ncnc2[nH]ccc12)N1CCCC(C)(C(=O)NCC#N)C1 (configuration not stated)	4800 nM	1860 nM	1580 nM
CN(c1ncnc2[nH]ccc12)N1CCCC(C(=O)NCC(F)(F)F)C1 (configuration not stated)	33.2 nM	2.9 nM	16.1 nM
CN(c1ncnc2[nH]ccc12)N1CCC(C(=O)NCC#N)C1 (configuration not stated)	43 nM	3.3 nM	25.1 nM
CN(c1ncnc2[nH]ccc12)N1CC[C@H](C(=O)NCC(F)(F)F)C1	361 nM	18 nM	13 nM
CN(c1ncnc2[nH]ccc12)N1CCC[C@@H](C(=O)NCC#N)C1	3.6 nM	0.3 nM	3.9 nM
CN(CC(F)(F)F)C(=O)C1CCCN(N(C)c2ncnc3[nH]ccc23)C1 (configuration not stated)	165 nM	15.1 nM	77.4 nM
CN(c1ncnc2[nH]ccc12)N1CCC(C(=O)NCC(F)(F)F)CC1	316 nM	14 nM	186 nM
CC1CCC(C(=O)NCC(F)(F)F)CN1N(C)c1ncnc2[nH]ccc12 (configuration not stated)	2000 nM	309 nM	339 nM
CN(c1ncnc2[nH]ccc12)N1CCCN(C(=O)CC(F)(F)F)CC1	10000 nM	10000 nM	10000 nM
CN(c1ncnc2[nH]ccc12)N1CCCC(C(=O)NCC(F)F)C1 (configuration not stated)	16.1 nM	1.6 nM	8.3 nM
CN(c1ncnc2[nH]ccc12)N1CCC(C)(C(=O)NCC(F)(F)F)C1 (configuration not stated)	10000 nM	5020 nM	5970 nM
CN(c1ncnc2[nH]ccc12)N1CCCC(C(=O)NCCC#N)C1 (configuration not stated)		35 nM	188 nM
CN(c1ncnc2[nH]ccc12)N1CCCC(N2CCCC2=O)C1 (configuration not stated)	3500 nM	1120 nM	349 nM
